Experimental findings from paper PMC6245188, “Isolation and Characterization of Phenolic Compounds from the Leaves of Salix matsudana” (Molecules, 2008) are described below.

One assay deals with T1, COX-1 (Ovis aries, UniProt P05979).
T1 construct: purchased Cayman Chemical (Michigan, US)
T1 sequence (P05979 25-600): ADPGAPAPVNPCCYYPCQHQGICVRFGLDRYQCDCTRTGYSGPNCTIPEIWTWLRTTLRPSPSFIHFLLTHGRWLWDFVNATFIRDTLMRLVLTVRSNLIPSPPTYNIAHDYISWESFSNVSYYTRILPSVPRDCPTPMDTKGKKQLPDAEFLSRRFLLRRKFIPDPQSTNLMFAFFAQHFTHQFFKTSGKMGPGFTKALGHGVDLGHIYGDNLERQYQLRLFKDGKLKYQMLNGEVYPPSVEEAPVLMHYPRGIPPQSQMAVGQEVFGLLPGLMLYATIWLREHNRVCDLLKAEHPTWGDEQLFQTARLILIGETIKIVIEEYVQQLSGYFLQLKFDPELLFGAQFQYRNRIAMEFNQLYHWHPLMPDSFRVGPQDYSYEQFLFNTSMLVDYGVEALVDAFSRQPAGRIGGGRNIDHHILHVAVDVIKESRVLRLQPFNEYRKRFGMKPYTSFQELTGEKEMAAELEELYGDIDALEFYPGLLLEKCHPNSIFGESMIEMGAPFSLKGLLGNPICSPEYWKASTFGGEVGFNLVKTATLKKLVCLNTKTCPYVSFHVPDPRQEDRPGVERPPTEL
In words: Effect on cyclooxygenase-1 (PGE2 production from 14C-arachidonic acid, HPLC radioactivity detection). It is filed as biochemical. The procedure:
(§1) COX-1 and COX-2 were purchased from Cayman Chemical (Michigan, US). The ^14C-labeled arachidonic acid (>200 µCi, NEN) was purchased from New England Nuclear Co. (Boston, US). Other chemicals and reagents were purchased from the Chinese Chemical Group (Beijing, P.R. China).
(§2) The effect of the tested compounds on cyclooxygenase-1 and -2 (COX-1 and -2) was determined by measuring PGE2 production. […] 1-^14C Arachidonic acid (10 µL) was added to start the reaction. The mixture was incubated for 30 min at 37 °C, then, the reaction was terminated by adding the reaction mixture (20 µL) to 30 µM indomethacin (200 µL). Arachidonic acid and its radio-labeled metabolites were separated and determined by reversed-phase HPLC using a Berthold radioactivity monitor. Inhibition refers to reduction of PGE2 formation, in comparison to a blank run without inhibitor. The results are means of three independent experiments.

Another assay addresses T2, COX-2 (Homo sapiens, UniProt P35354).
T2 construct: purchased Cayman Chemical (Michigan, US)
T2 sequence (P35354 18-604): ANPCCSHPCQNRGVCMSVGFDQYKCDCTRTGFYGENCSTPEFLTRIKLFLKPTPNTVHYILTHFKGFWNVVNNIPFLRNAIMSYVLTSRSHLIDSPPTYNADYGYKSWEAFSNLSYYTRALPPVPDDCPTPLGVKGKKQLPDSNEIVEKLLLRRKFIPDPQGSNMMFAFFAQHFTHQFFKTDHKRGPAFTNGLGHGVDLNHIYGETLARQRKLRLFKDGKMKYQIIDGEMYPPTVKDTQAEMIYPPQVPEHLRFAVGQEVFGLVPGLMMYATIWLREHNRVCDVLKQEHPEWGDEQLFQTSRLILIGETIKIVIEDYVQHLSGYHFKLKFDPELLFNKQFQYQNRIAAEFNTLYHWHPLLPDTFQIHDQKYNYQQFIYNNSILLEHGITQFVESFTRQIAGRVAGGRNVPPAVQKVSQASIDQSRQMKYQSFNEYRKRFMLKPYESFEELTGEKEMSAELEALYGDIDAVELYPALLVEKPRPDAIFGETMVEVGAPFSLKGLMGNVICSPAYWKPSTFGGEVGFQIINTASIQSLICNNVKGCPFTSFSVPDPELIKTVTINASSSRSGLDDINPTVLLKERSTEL
In words: Effect on cyclooxygenase-2 (PGE2 production from 14C-arachidonic acid, HPLC radioactivity detection). The class given is biochemical. The settings on record: for IC50 / IC50 of COX-2: means of three determinations, 30 min at 37 °C, Tris-HCl pH 8.0, I.A. = Inactive; for inhibitory effect on COX-2 (in words): qualitative statement. The procedure: as §1, §2

Where [1] appears, read: means of three determinations, 30 min at 37 °C, Tris-HCl pH 8.0, I.A. = Inactive, read-out: IC50 of COX-1.
Where [2] appears, read: means of three determinations, 30 min at 37 °C, Tris-HCl pH 8.0, I.A. = Inactive.

Like-named read-outs stand apart in the source and are kept apart here.

Usually IC50 stands for the concentration that gives 50% inhibition. In the case of `CC1(C)C=Cc2c(cc(O)c3c(=O)c(OC4OC(CO)C(O)C(O)C4O)c(-c4ccc(O)c(O)c4)oc23)O1` [Compound 1, 7,8-(2'', 2''-dimethylpyrano)-5, 3', 4'-trihydroxy-flavone-3-O-β-D-glucoside], the IC50 on COX-1 (setting [1]) amounted to 153 µM. Moreover, on COX-2, the IC50 stood at 27.3 µM and the “inhibitory effect on COX-2 (in words)” value was “potent inhibitory effect”.
As for `O=c1cc(-c2ccc(O)c(O)c2)oc2cc(O)cc(O)c12` [Compound 2, luteolin], the “IC50 of COX-1” value on COX-1 (setting [2]) is given as “I.A.^b”. Further, the “IC50 of COX-2” value on COX-2 is “I.A”.
On to `O=c1c(O[C@@H]2O[C@H](CO)[C@@H](O)[C@H](O)[C@H]2O)c(-c2ccc(O)c(O)c2)oc2cc(O)cc(O)c12` [Compound 3, isoquercitrin], for which, at COX-1, the IC50 worked out at 103 µM.
For `COc1ccc2c(=O)cc(-c3ccccc3)oc2c1` [Compound 4, 7-methoxyflavone], the IC50 was determined as 99.1 µM at COX-1 (setting [1]) and 169 µM on COX-2.
`O=c1cc(-c2ccc(O)c(O)c2)oc2cc(O[C@@H]3O[C@H](CO)[C@@H](O)[C@H](O)[C@H]3O)cc(O)c12` [Compound 5, luteolin 7-O-glucoside]: the IC50 at COX-1 (setting [1]) worked out at 92.3 µM. Moreover, at COX-2, the IC50 was 39.1 µM and the “inhibitory effect on COX-2 (in words)” value was “potent inhibitory effect”.
`O=c1cc(-c2ccc(O)cc2)oc2cc(O)ccc12` [Compound 6, 4',7-dihydroxyflavone]: on COX-1 (setting [2]), the “IC50 of COX-1” value is listed as “I.A”. In addition, at COX-2, the IC50 was 58.8 µM and the “inhibitory effect on COX-2 (in words)” value was “potent inhibitory effect”.
`COc1cc(O)cc(OC)c1OC1OC(CO)C(O)C(O)C1O` (stereo not drawn) [Compound 7, leonuriside A]: the figures for the IC50 on COX-1 (setting [1]) and at COX-2 were 195 µM and 200 µM, respectively.
For the molecule `CC(=O)c1ccc(OC2OC(CO)C(O)C(O)C2O)cc1` (stereo not drawn) [Compound 8, piceoside], the IC50 at COX-1 (setting [1]) worked out at 217 µM. Further, the “IC50 of COX-2” value at COX-2 is listed as “I.A”.
